# ChEMBL document CHEMBL5579859, “Discovery of novel indazole derivatives as second-generation TRK inhibitors” (Eur J Med Chem, 2024)
# Tested on: BaF3
# Test: cells
# Details: Mus musculus, BaF3, 72 h
# Description: Antiproliferative activity against mouse BaF3 cells expressing TRKA G595R mutant incubated for 72 hrs by CCK8 assay
row,Compound,IC50 [nM]
1,Fc1ccc(OCC(F)F)c(CNc2ccc3[nH]nc(-n4ccnn4)c3c2)c1,132
2,Fc1ccc(OCC(F)F)c(CNc2ccc3[nH]nc(-n4cncn4)c3c2)c1,54.5
3,C[C@@H]1CCc2ncc(F)cc2[C@H]2CCCN2c2ccn3ncc(c3n2)C(=O)N1 [SELITRECTINIB],12

# Molecular target: High affinity nerve growth factor receptor (Homo sapiens, UniProt P04629, F589L)
# Test: Inhibition of TRKA F589L mutant (unknown origin) using TK as substrate incubated for 30 mins in presence of ATP by HTRF assay
# Details: not given
# Sequence of High affinity nerve growth factor receptor (Homo sapiens, UniProt P04629, F589L) (P04629 33-796 F589L limits assumed): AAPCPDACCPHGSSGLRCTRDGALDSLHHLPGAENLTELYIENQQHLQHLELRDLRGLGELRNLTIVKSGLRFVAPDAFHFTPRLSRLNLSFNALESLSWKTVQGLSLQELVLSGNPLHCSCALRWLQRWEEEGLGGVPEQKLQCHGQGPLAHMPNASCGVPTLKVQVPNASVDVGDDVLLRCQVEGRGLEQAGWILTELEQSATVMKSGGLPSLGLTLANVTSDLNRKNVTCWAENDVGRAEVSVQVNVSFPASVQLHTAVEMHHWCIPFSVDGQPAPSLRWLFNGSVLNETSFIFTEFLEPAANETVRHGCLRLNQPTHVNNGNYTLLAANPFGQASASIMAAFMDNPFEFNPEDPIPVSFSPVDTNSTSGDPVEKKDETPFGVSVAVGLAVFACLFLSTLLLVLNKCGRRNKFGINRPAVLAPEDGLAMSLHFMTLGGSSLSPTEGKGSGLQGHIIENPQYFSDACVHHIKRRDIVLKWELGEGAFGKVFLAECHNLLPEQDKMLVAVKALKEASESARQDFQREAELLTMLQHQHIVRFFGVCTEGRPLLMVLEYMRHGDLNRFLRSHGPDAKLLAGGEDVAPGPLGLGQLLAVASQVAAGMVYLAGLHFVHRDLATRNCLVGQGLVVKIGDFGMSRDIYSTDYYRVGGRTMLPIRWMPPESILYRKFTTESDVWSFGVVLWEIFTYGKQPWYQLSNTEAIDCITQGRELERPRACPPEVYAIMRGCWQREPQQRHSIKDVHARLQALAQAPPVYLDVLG
row,Compound,IC50 [nM]
1,Fc1ccc(OCC(F)F)c(CNc2ccc3[nH]nc(-n4ccnn4)c3c2)c1,2
2,Fc1ccc(OCC(F)F)c(CNc2ccc3[nH]nc(-n4cncn4)c3c2)c1,1
3,N#Cc1n[nH]c2ccc(NCc3cc(F)ccc3OCC(F)F)cc12,10
4,Fc1ccc(OCC(F)F)c(CNc2ccc3[nH]nc(-c4cnoc4)c3c2)c1,8

# Tested on: MCF7
# Test: cells
# Details: Homo sapiens, MCF7, 72 h
# Description: Antiproliferative activity against human MCF7 cells incubated for 72 hrs by CCK8 assay
row,Compound,IC50 [nM]
1,Fc1ccc(OCC(F)F)c(CNc2ccc3[nH]nc(-n4ccnn4)c3c2)c1,> 10000
2,Fc1ccc(OCC(F)F)c(CNc2ccc3[nH]nc(-n4cncn4)c3c2)c1,> 10000
3,C[C@@H]1CCc2ncc(F)cc2[C@H]2CCCN2c2ccn3ncc(c3n2)C(=O)N1 [SELITRECTINIB],> 10000

# Molecular target: High affinity nerve growth factor receptor (Homo sapiens, UniProt P04629, G595R)
# Test: Inhibition of TRKA G595R mutant (unknown origin) using TK as substrate incubated for 30 mins in presence of ATP by HTRF assay
# Details: not given
# Sequence of High affinity nerve growth factor receptor (Homo sapiens, UniProt P04629, G595R) (P04629 33-796 G595R limits assumed): as the sequence (P04629 33-796 F589L limits assumed) above, with L557F, G563R counted along it
row,Compound,IC50 [nM]
1,COc1ccc(F)cc1CNc1ccc2[nH]nc(-n3cc(F)cn3)c2c1,350
2,COc1ccc(F)cc1CNc1ccc2[nH]nc(-c3cn[nH]c3)c2c1,110
3,COc1ccc(F)cc1CNc1ccc2[nH]nc(C(=O)NO)c2c1,4830
4,Fc1ccc(OCC(F)F)c(CNc2ccc3[nH]nc(-n4ccnn4)c3c2)c1,63
5,COc1ccc(F)cc1CNc1ccc2[nH]nc(-c3cccc(F)c3)c2c1,360
6,CNC(=O)c1n[nH]c2ccc(NCc3cc(F)ccc3OC3CCOC3)cc12 (stereo unspecified),210
7,COc1ccc(F)cc1CNc1ccc2[nH]nc(C(=O)NCC(F)F)c2c1,8590
8,Fc1ccc(OCC(F)F)c(CNc2ccc3[nH]nc(-n4cncn4)c3c2)c1,19
9,COc1ccc(F)cc1CNc1ccc2[nH]nc(-n3cnc(C(F)(F)F)c3)c2c1,580
10,CNC(=O)c1n[nH]c2ccc(NCc3cc(F)ccc3OCCF)cc12,200
11,COc1ccc(F)cc1CNc1ccc2[nH]nc(C(=O)N3CCC(F)(F)C3)c2c1,33100
12,COc1ccc(F)cc1CNc1ccc2[nH]nc(C(=O)NC3CC3)c2c1,3650
13,CNC(=O)c1n[nH]c2ccc(NCc3cc(F)ccc3P(C)(C)=O)cc12,5580
14,CNC(=O)c1n[nH]c2ccc(NCc3cc(F)ccc3S(C)(=O)=O)cc12,1120
15,N#Cc1n[nH]c2ccc(NCc3cc(F)ccc3OCC(F)F)cc12,30
16,CNC(=O)c1n[nH]c2ccc(NCc3cc(F)ccc3OC3CCOCC3)cc12,290
17,Fc1ccc(OCC(F)F)c(CNc2ccc3[nH]nc(-c4cnoc4)c3c2)c1,35
18,CNC(=O)c1n[nH]c2ccc(NCc3cc(F)ccc3OC(F)F)cc12,380
19,COc1ccc(F)cc1CNc1ccc2[nH]nc(C#N)c2c1,170
20,COc1ccc(F)cc1CNc1ccc2[nH]nc(C(N)=O)c2c1,670
21,CNC(=O)c1n[nH]c2ccc(NCc3cc(F)ccc3OCCO)cc12,1170
22,COc1ccc(F)cc1CNc1ccc2[nH]nc(C(=O)N3CCC(O)C3)c2c1 (stereo unspecified),> 50000
23,COc1ccc(F)cc1CNc1ccc2[nH]nc(-n3cc(C(F)(F)F)cn3)c2c1,5700
24,COc1ccc(F)cc1CNc1ccc2[nH]nc(-n3cccn3)c2c1,550
25,CNC(=O)c1n[nH]c2ccc(NCc3cc(F)ccc3OCC(F)(F)F)cc12,140
26,CNC(=O)c1n[nH]c2ccc(NCc3cc(F)ccc3OC(C)C)cc12,240
27,COc1ccc(F)cc1CNc1ccc2[nH]nc(-c3ccc(F)cc3)c2c1,1350
28,CNC(=O)c1n[nH]c2ccc(NCc3cc(F)ccc3OC)cc12,92

# Tested on: KM12
# Test: cells
# Details: Homo sapiens, KM12, 72 h
# Description: Antiproliferative activity against human KM12 cells incubated for 72 hrs by CCK8 assay
row,Compound,IC50 [nM]
1,Fc1ccc(OCC(F)F)c(CNc2ccc3[nH]nc(-n4ccnn4)c3c2)c1,9.8
2,Fc1ccc(OCC(F)F)c(CNc2ccc3[nH]nc(-n4cncn4)c3c2)c1,5.7
3,C[C@@H]1CCc2ncc(F)cc2[C@H]2CCCN2c2ccn3ncc(c3n2)C(=O)N1 [SELITRECTINIB],6.8

# Molecular target: NT-3 growth factor receptor (Homo sapiens, UniProt Q16288)
# Test: Inhibition of TRKC (unknown origin) using TK as substrate incubated for 40 mins in presence of ATP by HTRF assay
# Details: not given
# Sequence of NT-3 growth factor receptor (Q16288 whole entry): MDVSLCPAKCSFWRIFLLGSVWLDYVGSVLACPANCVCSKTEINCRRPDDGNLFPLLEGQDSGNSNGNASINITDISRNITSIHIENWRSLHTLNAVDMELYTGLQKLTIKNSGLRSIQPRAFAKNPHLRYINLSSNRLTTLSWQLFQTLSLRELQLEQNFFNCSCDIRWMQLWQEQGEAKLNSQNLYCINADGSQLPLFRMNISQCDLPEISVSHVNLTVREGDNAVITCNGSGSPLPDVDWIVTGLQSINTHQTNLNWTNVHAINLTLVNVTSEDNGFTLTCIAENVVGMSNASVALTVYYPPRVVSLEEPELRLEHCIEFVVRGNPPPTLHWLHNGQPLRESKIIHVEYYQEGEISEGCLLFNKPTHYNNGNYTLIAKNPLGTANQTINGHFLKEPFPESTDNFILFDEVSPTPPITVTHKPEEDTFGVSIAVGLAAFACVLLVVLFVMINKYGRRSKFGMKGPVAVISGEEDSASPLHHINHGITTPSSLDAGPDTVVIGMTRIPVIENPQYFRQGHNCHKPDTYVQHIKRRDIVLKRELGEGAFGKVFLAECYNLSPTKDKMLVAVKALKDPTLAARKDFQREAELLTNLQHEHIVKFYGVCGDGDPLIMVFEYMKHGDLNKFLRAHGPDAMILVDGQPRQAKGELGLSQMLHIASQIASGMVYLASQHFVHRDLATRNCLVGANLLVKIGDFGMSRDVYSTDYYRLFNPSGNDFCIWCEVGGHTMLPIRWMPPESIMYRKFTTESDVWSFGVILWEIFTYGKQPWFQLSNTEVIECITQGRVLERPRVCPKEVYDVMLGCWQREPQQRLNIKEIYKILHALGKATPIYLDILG
row,Compound,IC50 [nM]
1,Fc1ccc(OCC(F)F)c(CNc2ccc3[nH]nc(-n4ccnn4)c3c2)c1,4
2,Fc1ccc(OCC(F)F)c(CNc2ccc3[nH]nc(-n4cncn4)c3c2)c1,2
3,N#Cc1n[nH]c2ccc(NCc3cc(F)ccc3OCC(F)F)cc12,3
4,CNC(=O)c1n[nH]c2ccc(NCc3cc(F)ccc3OCC(F)F)cc12,3

# Tested on: BaF3
# Test: cells
# Details: Mus musculus, BaF3, 72 h
# Remark: another data set of the same source
row,Compound,IC50 [nM]
1,Fc1ccc(OCC(F)F)c(CNc2ccc3[nH]nc(-n4ccnn4)c3c2)c1,136
2,Fc1ccc(OCC(F)F)c(CNc2ccc3[nH]nc(-n4cncn4)c3c2)c1,64.1
3,C[C@@H]1CCc2ncc(F)cc2[C@H]2CCCN2c2ccn3ncc(c3n2)C(=O)N1 [SELITRECTINIB],113

# Molecular target: High affinity nerve growth factor receptor (Homo sapiens, UniProt P04629, G667C)
# Test: Inhibition of TRKA G667C mutant (unknown origin) using TK as substrate incubated for 30 mins in presence of ATP by HTRF assay
# Details: not given
# Sequence of High affinity nerve growth factor receptor (Homo sapiens, UniProt P04629, G667C) (P04629 33-796 G667C limits assumed): as the sequence (P04629 33-796 F589L limits assumed) above, with L557F, G635C counted along it
row,Compound,IC50 [nM]
1,Fc1ccc(OCC(F)F)c(CNc2ccc3[nH]nc(-n4ccnn4)c3c2)c1,61
2,Fc1ccc(OCC(F)F)c(CNc2ccc3[nH]nc(-n4cncn4)c3c2)c1,25
3,N#Cc1n[nH]c2ccc(NCc3cc(F)ccc3OCC(F)F)cc12,1200
4,Fc1ccc(OCC(F)F)c(CNc2ccc3[nH]nc(-c4cnoc4)c3c2)c1,49

# Molecular target: High affinity nerve growth factor receptor (Homo sapiens, UniProt P04629)
# Test: Inhibition of TRKA (unknown origin) using TK as substrate incubated for 30 mins in presence of ATP by HTRF assay
# Details: not given
# Sequence of High affinity nerve growth factor receptor (Homo sapiens, UniProt P04629) (P04629 whole entry): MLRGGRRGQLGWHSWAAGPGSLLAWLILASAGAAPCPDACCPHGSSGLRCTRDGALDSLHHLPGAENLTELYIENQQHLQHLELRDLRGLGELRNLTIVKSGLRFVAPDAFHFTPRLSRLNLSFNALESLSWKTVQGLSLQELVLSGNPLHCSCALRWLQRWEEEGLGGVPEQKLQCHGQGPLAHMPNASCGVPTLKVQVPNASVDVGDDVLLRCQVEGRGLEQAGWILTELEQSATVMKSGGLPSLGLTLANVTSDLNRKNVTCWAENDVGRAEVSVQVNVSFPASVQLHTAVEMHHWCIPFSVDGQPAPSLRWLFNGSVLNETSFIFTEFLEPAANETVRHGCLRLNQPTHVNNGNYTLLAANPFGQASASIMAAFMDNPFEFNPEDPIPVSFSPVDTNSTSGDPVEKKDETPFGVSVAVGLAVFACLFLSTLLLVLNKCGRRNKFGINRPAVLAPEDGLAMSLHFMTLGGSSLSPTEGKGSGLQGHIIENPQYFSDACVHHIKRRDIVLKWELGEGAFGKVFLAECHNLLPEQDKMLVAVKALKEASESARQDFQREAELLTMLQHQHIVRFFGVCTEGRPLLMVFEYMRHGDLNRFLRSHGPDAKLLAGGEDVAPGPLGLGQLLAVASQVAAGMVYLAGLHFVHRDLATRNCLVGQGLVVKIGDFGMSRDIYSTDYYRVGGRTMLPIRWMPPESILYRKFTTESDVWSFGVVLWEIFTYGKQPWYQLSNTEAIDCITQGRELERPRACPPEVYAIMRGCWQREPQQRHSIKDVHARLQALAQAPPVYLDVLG
row,Compound,IC50 [nM]
1,Fc1ccc(OCC(F)F)c(CNc2ccc3[nH]nc(-n4ccnn4)c3c2)c1,3
2,Fc1ccc(OCC(F)F)c(CNc2ccc3[nH]nc(-n4cncn4)c3c2)c1,1
3,N#Cc1n[nH]c2ccc(NCc3cc(F)ccc3OCC(F)F)cc12,32
4,Fc1ccc(OCC(F)F)c(CNc2ccc3[nH]nc(-c4cnoc4)c3c2)c1,5
